The target of test [1] is T1, JAK3 enzyme (Homo sapiens, UniProt P52333).
T1 sequence (P52333 1-1124): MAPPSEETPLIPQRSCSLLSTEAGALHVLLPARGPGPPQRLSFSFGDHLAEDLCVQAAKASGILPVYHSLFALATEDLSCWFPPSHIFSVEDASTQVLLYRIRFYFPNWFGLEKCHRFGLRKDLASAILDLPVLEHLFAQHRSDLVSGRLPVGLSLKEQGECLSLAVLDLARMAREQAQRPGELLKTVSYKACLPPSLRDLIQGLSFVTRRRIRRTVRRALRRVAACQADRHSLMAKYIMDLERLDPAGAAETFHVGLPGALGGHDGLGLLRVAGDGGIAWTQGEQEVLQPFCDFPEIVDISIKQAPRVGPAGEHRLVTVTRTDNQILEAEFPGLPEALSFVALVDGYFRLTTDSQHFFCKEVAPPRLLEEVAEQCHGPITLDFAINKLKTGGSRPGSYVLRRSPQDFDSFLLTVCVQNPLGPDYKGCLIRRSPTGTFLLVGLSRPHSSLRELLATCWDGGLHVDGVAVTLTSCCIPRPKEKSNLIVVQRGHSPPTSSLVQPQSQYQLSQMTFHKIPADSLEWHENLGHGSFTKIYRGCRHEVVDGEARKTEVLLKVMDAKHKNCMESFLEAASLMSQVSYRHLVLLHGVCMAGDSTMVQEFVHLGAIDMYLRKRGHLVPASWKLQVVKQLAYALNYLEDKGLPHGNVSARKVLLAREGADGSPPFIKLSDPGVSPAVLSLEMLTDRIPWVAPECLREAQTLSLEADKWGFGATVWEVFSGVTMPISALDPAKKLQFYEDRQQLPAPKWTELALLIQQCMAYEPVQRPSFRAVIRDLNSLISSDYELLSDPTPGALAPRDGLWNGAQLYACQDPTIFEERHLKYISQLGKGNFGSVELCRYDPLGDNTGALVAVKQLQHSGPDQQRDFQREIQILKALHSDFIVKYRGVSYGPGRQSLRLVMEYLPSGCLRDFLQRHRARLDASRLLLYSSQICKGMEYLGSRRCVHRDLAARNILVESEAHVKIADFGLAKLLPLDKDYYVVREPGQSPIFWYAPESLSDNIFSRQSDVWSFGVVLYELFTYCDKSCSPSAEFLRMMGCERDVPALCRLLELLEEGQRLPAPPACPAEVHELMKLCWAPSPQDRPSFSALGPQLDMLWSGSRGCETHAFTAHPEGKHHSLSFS
The experiment in a line: JAK Caliper Enzyme Assay at 4 μM ATP. The format is biochemical. In short, it runs like this:
(§1)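 Compound tested as 11-point half-log DMSO dilution series (top 600 μM in DMSO, a dilution-plate level). Enzyme level and time set for 20%-30% peptide phosphorylation; phosphorylated and unphosphorylated peptide separated and quantified by Caliper LC3000 mobility shift.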

For test [2], the target named is T1, JAK3 enzyme. The experiment in a line: JAK Caliper Enzyme Assay at 1 mM ATP. The format is biochemical. In short, it runs like this:
as §1

Test [3] concerns IL-15 induced P-STAT5 in human PBMC. The test is described as follows: PBMC IL-15 Induced P-STAT5. Format: cell-based. The procedure: PBMC IL-15 Induced P-STAT5
Test compounds were serially diluted in DMSO, with further dilution of the compounds in RPMI 1640 medium (Invitrogen #72400) supplemented with 10 mM HEPES, pH 7.4, 1 mM sodium pyruvate, and Penicillin/Streptomycin (by adding 5 μL compound/DMSO in 120 μL Dulbecco's Phosphate-Buffered Saline (D-PBS, 1×), [DMSO]=4%, and mixing the solution by repeated pipetting, 6×). IL-15 was diluted to the concentration at 820 ng/mL in RPMI 1640 medium.
Frozen human PBMC (200-250 million cells/vial) was thawed at 37° C. The cells were transferred to 10 mL warm medium in a 50-mL conical tube, and centrifuged at 1,200 RPM at room temperature for 5 min. The supernatant was aspirated. Cells were suspended in 3 mL warm human plasma and incubated at 37° C. in a tissue culture incubator for 1.5 to 2 h. After adding 47 ml D-PBS (37° C.) to PBMC/FBS suspension, centrifuging at 1,200 RPM at room temperature for 5 min, and aspirating the supernatant, the cells were resuspended in 20 mL warm RPMI medium. Ninety μL of cell suspension were pipetted per well in a 96-well, deep-well, V-bottom plate, and the plate was incubated at 37° C. for 30 min. Five μL of compound were transferred to each well (final 0.2% DMSO), vortex gently and incubate at 37° C. for 15 min; 5 μL 4% DMSO/PBS were added to the control wells. After adding 5 μL 820 ng/mL of human IL-15 (final 41 ng/mL) to each well (5 μL PBS to the control wells), vortexing gently and incubating at 37° C. for 15 min, followed by 0.3 mL 1% paraformaldehyde/PBS (37° C.) to each well, and incubating the plate at room temperature for 15 min, the plates were centrifuged at 1,200 RPM (Beckman GS-6R or Sorvall Legend) at room temperature for 5 min, and the supernatant was aspirated using a 8-channel or 12-channel manifold. After adding 0.8 mL staining buffer per well, the plates were centrifuged at 1,200 RPM (Beckman GS-6R or Sorvall Legend) at room temperature for 5 min, and again the supernatant was aspirated using a 8-channel or 12-channel manifold. The plate was vortexed, and 0.35 mL 90% methanol/10% H2O (−20° C.) was added per well, and the plate incubated on ice for 20 min. After again adding 0.8 mL staining buffer per well, the plates were centrifuged at 1,200 RPM (Beckman GS-6R or Sorvall Legend) at room temperature for 5 min, and again the supernatant was aspirated using a 8-channel or 12-channel manifold, and then 0.8 mL Staining buffer was added per well. After once again adding 0.8 mL staining buffer per well, the plates were centrifuged at 1,200 RPM (Beckman GS-6R or Sorvall Legend) at room temperature for 5 min, and again the supernatant was aspirated using a 8-channel or 12-channel manifold. Then the plate was vortexed, and 250 μL/well of Alexa Fluor® 647 conjugated anti-STAT5 antibody ([…]; […]) was added, and the plate was incubated at 4° C. overnight in the dark. Samples of 250 μL/well were transferred to a 96-well U-bottom plate, and the FACS analysis was performed gating on total lymphocytes. Samples were analyzed using a BD Calibur™ or BD FACSCanto™ flow cytometer equipped with the BD High Throughput Sampler.

[4] abbreviates: human PBMC, IL-15 final 41 ng/mL, read-out: PBMC IL15_pSTAT5_IC50.

Like-named read-outs stand apart in the source and are kept apart here.

With `C=CC(=O)N1CC[C@H](Nc2cnc3[nH]cc(C(=O)NCC)c3n2)C[C@@H]1C` (racemic) [Example 349, 2-(((2S,4S)-1-acryloyl-2-methylpiperidin-4-yl)amino)-N-ethyl-5H-pyrrolo[2,3-b]pyrazine-7-carboxamide], the IC50 against JAK3 enzyme [1] worked out at 2.12 nM; against JAK3 enzyme [2] it was 367 nM; in test [3] (setting [4]), 2930 nM.
Consider `C=CC(=O)N1CC[C@@H](Nc2cnc3[nH]cc(C(=O)NCC)c3n2)[C@H](OC)C1` (single isomer, unassigned) [Example 26], for which the IC50 against JAK3 enzyme [1] came out at 1.65 nM; against JAK3 enzyme [2], 99 nM; in test [3] (setting [4]), 1930 nM.
In the same order, the values of `C=CC(=O)N1CC[C@H](Oc2cnc3[nH]cc(C(=O)NCC)c3n2)[C@@H](C)C1` (single isomer, unassigned) [Example 48] are 49.1 nM, 3060 nM and 6690 nM.
In the same order, the values of `C=CC(=O)N1C[C@@H](Nc2ncnc3[nH]ccc23)CC[C@H]1CNC(C)=O` (single isomer, unassigned) [Example 90] are 1.04 nM, 152 nM and 3220 nM.
For `C=CC(=O)N1C[C@H](CC#N)C[C@H](Nc2ncnc3[nH]ccc23)C1` (single isomer, unassigned) [Example 107] the same measures were 11.8 nM, 1240 nM and 8260 nM.
As to `C=CC(=O)N1CCC(Oc2cnc3[nH]cc([C@@H](C)O)c3n2)CC1` (single isomer, unassigned) [Example 119], the IC50 was determined as 34.2 nM on JAK3 enzyme [1], 3930 nM against JAK3 enzyme [2] and 9310 nM in test [3] (setting [4]).
For `C=CC(=O)N1CC[C@H](Nc2cnc3[nH]cc(C(=O)N[C@H](C)COC)c3n2)C[C@@H]1C` (stereo in doubt) [Example 354, 2-(((2S,4S)-1-Acryloyl-2-methylpiperidin-4-yl)amino)-N—((R)-1-methoxypropan-2-yl)-5H-pyrrolo[2,3-b]pyrazine-7-carboxamide] the same measures were 3.41 nM, 261 nM and 4520 nM.
As for `C=CC(=O)N1CC[C@H](Oc2cnc3[nH]cc(C(=O)N[C@H](C)COC)c3n2)C1` [Example 54, 2-{[(3S)-1-acryloylpyrrolidin-3-yl]oxy}-N-[(2R)-1-methoxypropan-2-yl]-5H-pyrrolo[2,3-b]pyrazine-7-carboxamide], the IC50 against JAK3 enzyme [1] was determined as 2.49 nM; against JAK3 enzyme [2], 345 nM; in test [3] (Homo sapiens, PBMC, read-out: PBMC IL15_pSTAT5_IC50 (nM)) it was 1640 nM.
For the compound `C=CC(=O)N(C)C1CN(c2cnc3[nH]cc(C(=O)NCC)c3n2)C1` [Example 59, 2-{3-[acryloyl(methyl)amino]azetidin-1-yl}-N-ethyl-5H-pyrrolo[2,3-b]pyrazine-7-carboxamide], the IC50 against JAK3 enzyme [1] is 6.26 nM; against JAK3 enzyme [2], 1200 nM; in test [3] (setting [4]), 4870 nM.
In the same order, the values of `C=CC(=O)N1CCC(C)(Oc2cnc3[nH]cc(C(=O)NCC)c3n2)CC1` [Example 61, 2-[(1-acryloyl-4-methylpiperidin-4-yl)oxy]-N-ethyl-5H-pyrrolo[2,3-b]pyrazine-7-carboxamide] are 3.39 nM, 564 nM and 2170 nM.
For `C=CC(=O)N(C)C1CN(c2cnc3[nH]cc(C(=O)NCCOC)c3n2)C1` [Example 84, 2-{3-[acryloyl(methyl)amino]azetidin-1-yl}-N-(2-methoxyethyl)-5H-pyrrolo[2,3-b]pyrazine-7-carboxamide] the same measures were 1.67 nM, 329 nM and 1220 nM.
On to `C=CC(=O)N1CCN(c2cnc3[nH]cc(C(=O)N[C@@H](CC)COC)c3n2)CC1(C)C` [Example 135, 2-(4-acryloyl-3,3-dimethylpiperazin-1-yl)-N-[(2S)-1-methoxybutan-2-yl]-5H-pyrrolo[2,3-b]pyrazine-7-carboxamide], for which the IC50 against JAK3 enzyme [1] was 1.49 nM; against JAK3 enzyme [2], 168 nM; in test [3] (setting [4]), 759 nM.
In the same order, the values of `C=CC(=O)N1CCN(c2cnc3[nH]cc(C(=O)N[C@H](C)CC#N)c3n2)CC1(C)C` [Example 152, 2-(4-acryloyl-3,3-dimethylpiperazin-1-yl)-N-[(2R)-1-cyanopropan-2-yl]-5H-pyrrolo[2,3-b]pyrazine-7-carboxamide] are 1.97 nM, 256 nM and 510 nM.
In the same order, the values of `C=CC(=O)N1CCN(c2cnc3[nH]cc(C(=O)N[C@@H](C)C(=O)OC)c3n2)CC1(C)C` [Example 158, Methyl N-{[2-(4-acryloyl-3,3-dimethylpiperazin-1-yl)-5H-pyrrolo[2,3-b]pyrazin-7-yl]carbonyl}-L-alaninate] are 3.07 nM, 365 nM and 888 nM.
For `C=CC(=O)N1CCN(c2cnc3[nH]cc(C(=O)NC(CC)(CC)CO)c3n2)CC1(C)C` [Example 163, 2-(4-acryloyl-3,3-dimethylpiperazin-1-yl)-N-[3-(hydroxymethyl)pentan-3-yl] 5H-pyrrolo[2,3-b]pyrazine-7-carboxamide] the same measures were 1.24 nM, 160 nM and 409 nM.
For `C=CC(=O)N1CCC(Nc2cnc3[nH]cc(C(=O)NCc4nc(C)cc(C(F)(F)F)n4)c3n2)CC1` [Example 171, 2-[(1-acryloylpiperidin-4-yl)amino]-N-{[4-methyl-6-(trifluoromethyl)pyrimidin-2-yl]methyl}-5H-pyrrolo[2,3-b]pyrazine-7-carboxamide], the figures for the IC50 (against JAK3 enzyme [1]; on JAK3 enzyme [2]; in test [3] (setting [4])) were 0.928 nM, 55 nM and 947 nM, respectively.

The record behind these values is patent US10703756B2, “Pyrrolo[2,3-D]pyrimidinyl, pyrrolo[2,3-B]pyrazinyl, pyrrolo[2,3-B]pyridinyl acrylamides and epoxides thereof” (Pfizer Inc., priority 2015, dated 2020).
